Where a name gives a salt, the structure may show the parent alone.
How the values were obtained:
Type in all cases: in vivo, patients
[1] = system: distal and lateral subungual toenail onychomycosis; assay: Clinical trial in toenail onychomycosis: healthy toenail growth
Description: (§1) A clinical trial was conducted to evaluate delivery of terbinafine HCl with an iontophoretic device according to an aspect of the present invention in patients with toenail onychomycosis. 38 patients suffering from distal and lateral subungual toenail onychomycosis were enrolled into the study and were divided randomly into group A (20 subjects) and group B (18 subjects). Onychomycosis was confirmed by both KOH examination and mycological culture, wherein samples were taken from the distal parts of the nail. Nail samples were divided, one part being used for direct KOH examination and the second part for fungal culture using Sabouraud's Dextrose agar (Novamed, Jerusalem, Israel). The identification of the fungus was done on the basis of morphologic characteristics. Group A was tested with 1% terbinafine HCl and an iontophoretic patch using a constant current density of 100 μA/cm^2. Group B was tested with 1% terbinafine HCl without iontophoresis. Treatment period was overnight wear, every day, five days per week, for 4 weeks. During the treatment period visits were conducted every 10 days (visits 2-4). The follow-up period was 10 weeks from the end of treatment (visit 5). At each visit nail photography and KOH examination were performed. […] Terbinafine content in affected nail samples was determined by clipping nails at visits 4 & 5. […] The eluted solution was analysed by HPLC.

[2] = system: fungal elements (KOH) in nail specimens; assay: Clinical trial in toenail onychomycosis: KOH examination for fungal elements in nail specimens; settings: 10 weeks following completion of treatment
Description: as §1

[3] = Terbinafine content in clipped nail samples by HPLC
Description: Group A was tested with 1% terbinafine HCl and an iontophoretic patch using a constant current density of 100 μA/cm^2. Group B was tested with 1% terbinafine HCl without iontophoresis. Treatment period was overnight wear, every day, five days per week, for 4 weeks. During the treatment period visits were conducted every 10 days (visits 2-4). The follow-up period was 10 weeks from the end of treatment (visit 5). At each visit nail photography and KOH examination were performed. Routine blood test; complete blood count and liver functions tests were performed at the before study initiation, at the end of the treatment and at the end of the follow-up period. Terbinafine content in affected nail samples was determined by clipping nails at visits 4 & 5. Nails were then weighed and cut into symmetric shapes in order to estimate their area. Symmetric shapes of nails were then cut into small pieces and inserted into tubes with 0.5 ml DDW. Subsequently, methanol 0.5 ml was added and tubes were sonicated. The eluted solution was analysed by HPLC.

[4] = Clinical trial: safety and tolerability of iontophoretic terbinafine delivery; settings: terbinafine delivered into the nail with the iontophoretic device, nail onychomycosis
Description: as §1

CN(C/C=C/C#CC(C)(C)C)Cc1cccc2ccccc12 [terbinafine, terbinafine HCl]
percentage of patients having healthy toenail growth above 1.5 mm at the end of treatment ([1]; group A: 1% terbinafine HCl with iontophoretic patch, constant current density 100 μA/cm^2, 4 weeks): 40%
percentage of patients having healthy toenail growth above 1.5 mm at the end of treatment ([1]; passive group B: 1% terbinafine HCl without current, 4 weeks): 11%
percentage of patients having fungal elements (KOH) in nail specimens ([2]; active group A (iontophoretic patch, 100 μA/cm^2)): 15%
percentage of patients having fungal elements (KOH) in nail specimens ([2]; passive group B (without iontophoresis)): 53%
Terbinafine nail content ([3]; end of follow up period (visit 5), active group A (iontophoretic patch)): 2.41 μg/cm^2
Terbinafine nail content ([3]; end of follow up period (visit 5), passive group B (without iontophoresis)): 0.15 μg/cm^2
Terbinafine nail content ([3]; visit 4, passive group B (without iontophoresis)): 1.34 μg/cm^2
safety and tolerability [4]: safe and well tolerated

Reference: US20110060268A1, “NAIL TREATMENT DEVICE” (POWER PAPER LTD., priority 2008, published 2011)
